In paper PMC7156724, “Potent BRD4 inhibitor suppresses cancer cell-macrophage interaction” (Nature Communications, 2020):
Values joined by “and” are separate entries in the source; they are usually repeats but may differ in a detail not shown here. Equal entries are not always repeated. Where two headings read alike, the source gives them in different places.

Columns and labels:
[1] = In vivo pharmacokinetics study, rat; parameters: species or system SD rat
Description: 4–6 weeks old female BALB/c nude mice were used for most experiments, with the exception of 6–8 weeks old female C57BL/6 mice were used for B16F10 experiments, and 6–8 weeks old male BALB/c nude mice and SD rats were used for pharmacokinetic experiments. All animals were purchased from Shanghai SIPPR-Bk Lab Animal Co., Ltd. All animals were housed under a regimen of 12 h light/12 h dark cycles and specific pathogen-free conditions. 5×10^6 NCI-H526, ES-2, MDA-MB231, A2780, A375, B16F10, and TMD-8 cells (0.1 ml) were injected subcutaneously into female nude mice. The melanoma patient-derived xenograft model was derived from a human melanoma sample (BRAF, NARS and NF1 wild type, and p53 mutant) removed from a patient in Xiangya Hospital. Surgically removed tumor fragments were implanted subcutaneously into female NSG mice. When the tumors grew to ~1000 mm^3, they were harvested and cryopreserved or immediately re-implanted for expansion or experiments. Mouse body weight and tumor sizes were measured every 3 days. Once the tumors grew to 150–200 mm^3, mice were treated with the compounds as described in the Figures. 1 × 10^6 A2780 cells (1 ml) were injected into the abdominal cavity of nude mice. Ascitic volume and tumor weight were measured by an electronic balance. All the procedures were evaluated and approved by the Institutional Animal Care and Use Committee of Central South University and Yale University.
Supplementary Figure 7. Pharmacokinetic profile of NHWD-870 using mouse and rat models.
(a,b) Plasma concentrations of NHWD-870 in healthy (a) mouse and (b) rat after intravenous (IV, 1.75 mg/kg for mouse and 1 mg/kg for rat) and oral (PO, 5 mg/kg) administration. Values shown on the right panels are mean ± SEM from 3 different animals. (c,d) Mean concentrations of NHWD-870 in the lungs (c) and tumors (d) of H526 xenograft model at the indicated hours after oral administration of 3 mg/kg NHWD-870 and BMS-98615821 on day 21. These mice were administrated the indicated drug daily for 21 days. Data are represented as mean ± SEM of 3 independent experiments. Source data are provided as a Source Data file. […]
9. In vivo pharmacokinetics study. Mouse and SD rat models were used to evaluate pharmacokinetic property of NHWD-870. NHWD-870 was administrated […]
Concentration of drugs in plasma, lung and tumor tissues were measured for the indicated time. […]

A2780 cells = experiment: MTT cell growth assay, A2780; format: cell-based, human; settings: 5 days
Description: Fig. 2 NHWD-870 inhibited BRD4 phosphorylation and c-MYC expression, and suppressed cell growth. a Representative western blot analysis of p-BRD4 (s484/488), BRD4, c-MYC, and GAPDH after treatment of MDA-MB231, SUM159, A2780 ES-2, and H526 cells with JQ-1 or NHWD-870 at the indicated concentrations for 24 h. GAPDH served as the loading control. Selected from three independent experiments. b MTT assays of H526, A2780, ES-2, and MDA-MB231 cells treated with JQ-1 or NHWD-870 at the indicated concentrations for 5 days. Data are presented as mean ± SEM from three independent experiments. c, d Clonogenic assays of H526, A2780, ES-2 and MDA-MB231 cells treated with 250 nM JQ-1 or NHWD-870 for 5 days. Shown are representative images (c) and quantification of colonies (d). […] Shown are representative images (e) and quantification of relative colony sizes (f). Scale bar, 50 μm. Data are presented as mean ± SEM from five independent experiments. p values were calculated using two-tailed, unpaired t tests in this figure. **p < 0.01; ***p < 0.001. Source data are provided as a Source Data file.
37℃, 5% CO2. […]

[2] = male, SD, plasma, iv, 1 mg/kg, IV 1 mg/kg
[3] = male, SD, plasma, iv, 1 mg/kg, IV bolus, individual animals, LLOQ 1.00 ng/mL, read-out: Plasma Conc.
[4] = male, SD, plasma, po, 5 mg/kg, PO, individual animals, LLOQ 1.00 ng/mL, read-out: Plasma Conc.

Cc1nnn(C)c1-c1cnc2c3c4cnn(C)c4ccc3n([C@H](c3ccccc3)C3CCOCC3)c2c1 [NHWD-870]
Plasma Conc. ([1]; PO, 8 h, individual animals, LLOQ 1.00 ng/mL): 6.96 ng/mL and 4.35 ng/mL and 9.56 ng/mL | Plasma Conc. ([1]; PO, 24 h, individual animals, LLOQ 1.00 ng/mL): BQL | AUC(0-inf) ([1]; male, SD, plasma, IV 1 mg/kg): 331 ± 6.45 ng·h/mL | AUC(0-t) ([1]; male, SD, plasma, IV 1 mg/kg): 323 ± 5.55 ng·h/mL | C0 ([1]; male, SD, plasma, IV 1 mg/kg): 441 ± 17.9 ng/mL | MRT inf ([1]; male, SD, plasma, IV 1 mg/kg): 1.08 ± 0.021 h | MRT last ([1]; male, SD, plasma, IV 1 mg/kg): 0.98 ± 0.045 h | Vd ([1]; male, SD, plasma, IV 1 mg/kg, read-out: Vdss): 3.27 ± 0.0925 L/kg | AUC(0-inf) ([1]; male, SD, plasma, PO 5 mg/kg): 398 ± 9.15 ng·h/mL | AUC(0-t) ([1]; male, SD, plasma, PO 5 mg/kg): 382 ± 12.6 ng·h/mL | Cmax ([1]; male, SD, plasma, PO 5 mg/kg): 101 ± 11.8 ng/mL | MRT inf ([1]; male, SD, plasma, PO 5 mg/kg): 3.28 ± 0.33 h | MRT last ([1]; male, SD, plasma, PO 5 mg/kg): 3 ± 0.256 h | Tmax ([1]; male, SD, plasma, PO 5 mg/kg): 1.67 ± 0.288 h | bioavailability ([1]; male, SD, plasma, PO 5 mg/kg, calculated using AUCinf with nominal dose): 24% | clearance [1, 2]: 50.4 ± 0.965 mL/min/kg | half-life [1, 2]: 0.92 ± 0.0805 h | concentration at 5 min ([1]; male, SD, plasma, iv, 1 mg/kg, IV bolus, 5 min, individual animals, LLOQ 1.00 ng/mL, read-out: Plasma Conc.): 392 ng/mL | concentration at 0.25 h [1, 3]: 259 ng/mL | concentration at 0.5 h [1, 3]: 168 ng/mL | concentration at 1 h ([1]; male, SD, plasma, iv, 1 mg/kg, IV bolus, 1 h, individual animals, LLOQ 1.00 ng/mL, read-out: Plasma Conc.): 96.1 ng/mL | concentration at 2 h [1, 3]: 39 ng/mL | concentration at 4 h [1, 3]: 8.15 ng/mL | concentration at 8 h ([1]; male, SD, plasma, iv, 1 mg/kg, IV bolus, 8 h, individual animals, LLOQ 1.00 ng/mL, read-out: Plasma Conc.): 1.09 ng/mL | half-life ([1]; male, SD, plasma, po, 5 mg/kg, PO 5 mg/kg): 1.48 ± 0.155 h | concentration at 0.25 h [1, 4]: 18.2 ng/mL | concentration at 0.5 h [1, 4]: 56.8 ng/mL | concentration at 2 h [1, 4]: 110 ng/mL | concentration at 4 h [1, 4]: 45.5 ng/mL | MTT assay, relative cell number (A2780 cells; A2780, 0.1 nM): 0.974 and 0.959 and 0.985 | MTT assay, relative cell number (A2780 cells; A2780, 1 nM): 0.705 and 0.725 and 0.731 | MTT assay, relative cell number (A2780 cells; A2780, 10 nM): 0.252 and 0.282 and 0.215 | MTT assay, relative cell number (A2780 cells; A2780, 100 nM): 0.025 and 0.047 and 0.033 | MTT assay, relative cell number (A2780 cells; A2780, 500 nM): 0 | MTT assay, relative cell number (A2780 cells; A2780, 1000 nM): 0 | MTT assay, relative cell number (A2780 cells; A2780, 5000 nM): 0 | MTT assay, relative cell number (A2780 cells; A2780, 10000 nM): 0
